Twelve compounds from US4786755A, “Diphenic acid monoamides” (Warner-Lambert Company, priority 1986, dated 1988) can be followed below.

Read-outs that look alike come from different tables or passages of the source.

For this experiment, the system named is Human Basophils. Nature of the experiment: Histamine Release from Human Basophils (HHB). Format: cell-based. The settings on record: for inhibition at 33 µM: Homo sapiens, 33 μM cpd. The source says: Histamine Release from Human Basophils (HHB) Procedure for Quantitating Active Histamine Release, and its Inhibition by Drugs, from Basophils of Human Blood Using an Automated Fluorometric Histamine Assay
Mediator (histamine) release from human blood basophils is an assay which provides a model for evaluating potential antiallergy (mediator release inhibitors) compounds.
Blood from allergic donors is obtained from volunteers through the Community Research Clinic. The leukocytes are removed after Hespan® sedimentation, washed and concentrated using calcium and magnesium free Hepes buffered saline and resuspended in Hepes Hepes buffered saline with 1 mM calcium and magnesium added back. The cells are incubated briefly at room temperature with either buffer alone (for measuring spontaneous release and challenge agent stimulated release) 6% perchloric acid (for measuring total available histamine in the cells) or drug at various concentrations. The cells are then either treated with buffer alone (to measure control spontaneous and drug effect on spontaneous release) or appropriate challenge agent (e.g., anti-IgE, antigen) mixed and incubated for 45 minutes at 37° C. in a shaking water bath. The reaction is stopped by centrifugation and the supernate is poured into autoanalyzer sample cups and samples assayed for assayed for histamine content using an automated fluorometric assay. By comparing the histamine release of drug-treated cells and the challenge agent controls, drug inhibition of mediator (histamine) release can be evaluated.
Histamine release is induced by (1) an aqueous antigen extract (short rageweed or house dust), or (2) anti-IgE antisera. Whole human blood is obtained from volunteers through the Community Research Clinic (CRC-92). Volunteers are chosen on the basis of adequate histamine release induced by antigen, or antiIgE antisera challenge. Leukocytes are incubated in vitro with the challenge agents at several concentrations. Dose-response curves for each volunteer, using each challenge agent, are generated. Test compounds are evaluated for inhibition of a near maximal response to one or more challenge agents. By including appropriate controls, it is possble to measure the effect of the test compound, at various concentrations, in several ways: (1) the effect of the compound on histamine release for each challenge agent; (2) the effect of the test compound on spontaneous release of histamine in the absence of the challenge agent (buffer alone); and (3) the effect of the test compound on the histamine assay.
Histamine is assayed using an automated continuous flow system which quantitates samples of 0.4 ml or more in volume, and concentrations of approximately 0.5 ng/ml or more. The rate of analysis is 30 samples/hour.
Methods of preparing leukocytes for this assay are described by Theuson, et al, J. of Immunology, Vol. 123, p. 426 (1979).
Samples are run in triplicate, using either 1.5 ml polypropylene capped reaction tubes, or 5.0 ml plastic uncapped tubes. Test compounds and challenge agents are prepared in HACM buffer, as described above. Fixed volume pipettes are used.
Test compound or vehicle control is added to three reaction tubes at 1.5×the final desired concentration (i.e., 400 μl of test compound per 600 μl total reaction volume). One hundred μl of cells is added to each tube and the mixture is incubated for eight minutes at room temperature, and two minutes at 37° C. before antigen or other stimulus challenge. One hundred μl of the challenge agent at 6× the final concentration is then added, and the final mixture is incubated at 37° C. for 45 minutes in a shaking water bath. This ensures that the cell preparation is constantly in suspension. The reaction is stopped by centrifugation at 2000 RPM for three minutes at 4° C. The supernate (.perspectiveto.500 μl) is poured into 2.0 ml autoanalyzer beakers and assayed for histamine by the fluorometric method. […]

Where [1] appears, read: Tripeptide challenge, read-out: HHB (Tripeptide), percent inhibition of histamine release.
[2] abbreviates: antigen challenge, read-out: HHB (antigen), percent inhibition of histamine release.

Turning to `CN(C(=O)c1ccccc1-c1ccccc1C(=O)O)c1ccc(CCc2ccc(Cl)c(Cl)c2)cc1` [Example 5, [1,1'-Biphenyl]-2-carboxylic acid, 2'-[[[4-[2-(3,4-dichlorophenyl)ethyl]phenyl]methylamino]carbonyl]-], the inhibition at 33 µM by setting is: under setting [1], 83%; under setting [2], 72%.

As to `O=C(O)c1ccccc1-c1ccccc1C(=O)Nc1ccc(OCCCc2ccccc2)cc1` [Example 2], the inhibition at 33 µM under setting [1] was determined as 96% and the inhibition at 33 µM under setting [2] was found to be 12%. For `O=C(O)c1ccccc1-c1ccccc1C(=O)Nc1ccc(CCCc2ccccc2)cc1` [Example 16, [1,1'-Biphenyl]-2-carboxylic acid, 2'-[[[4-(3-phenylpropyl]phenyl]amino]carbonyl]-], the inhibition at 33 µM under setting [1] was determined as 84%. `O=C(O)c1ccccc1-c1ccccc1C(=O)Nc1ccc(CCCCc2ccccc2)cc1` [Example 19, [1,1'-Biphenyl]-2-carboxylic acid, 2'-[[[4-(4-phenylbutyl)phenyl]amino]carbonyl]-]: the inhibition at 33 µM under setting [1] was 90% and the inhibition at 33 µM under setting [2] worked out at 59%. The corresponding values for `O=C(O)c1ccccc1-c1ccccc1C(=O)Nc1ccc(CCc2ccc(Cl)c(Cl)c2)cc1` [Example 3, [1,1'-Biphenyl]-2-carboxylic acid, 2'-[[[4-[2-(3,4-dichlorophenyl)ethyl]phenyl]amino]carbonyl]-] are 93% and 94%. `O=C(O)c1ccccc1-c1ccccc1C(=O)Nc1ccc(CCCc2ccc(Cl)c(Cl)c2)cc1` [Example 1, [1,1'-Biphenyl]-2-carboxylic acid, 2'-[[[4-[3-(3,4-dichlorophenyl)propyl]phenyl]amino]carbonyl]-]: the inhibition at 33 µM came to 72% under setting [1] and 72% under setting [2]. Take `O=C(O)c1ccccc1-c1ccccc1C(=O)Nc1ccc(Cc2ccc(Cl)c(Cl)c2)cc1` [Example 9]: the inhibition at 33 µM is 100% under setting [1] and 87% under setting [2].

Consider `O=C(O)c1ccccc1-c1ccccc1C(=O)Nc1cccc(CCc2ccc(Cl)c(Cl)c2)c1` [Example 4, [1,1'-Biphenyl]-2-carboxylic acid, 2'-[[[3-[2-(3,4-dichlorophenyl)ethyl]phenyl]amino]carbonyl]-], for which the inhibition at 33 µM worked out at 97% under setting [1] and 101% under setting [2].

For `CN(C(=O)c1ccccc1-c1ccccc1C(=O)O)c1ccc(CCc2ccc(Cl)cc2)cc1` [Example 8], the inhibition at 33 µM runs as follows: under setting [1], 111%; under setting [2], 67%.

In the case of `COc1ccc(CCc2ccc(NC(=O)c3ccccc3-c3ccccc3C(=O)O)cc2)cc1OC` [Example 7, [1,1'-Biphenyl]-2-carboxylic acid, 2'-[[[4-[2-(3,4-dimethoxyphenyl)ethyl]phenyl]amino]carbonyl]-], the inhibition at 33 µM by setting is: under setting [1], 93%; under setting [2], -5%. For `O=C(O)c1ccccc1-c1ccccc1C(=O)Nc1ccc(CCCCc2ccc(Cl)c(Cl)c2)cc1` [Example 15, [1,1'-Biphenyl]-2-carboxylic acid, 2'-[[[4-[4-(3,4-dichlorophenyl)butyl]phenyl]amino]carbonyl]-], the “HHB (antigen), percent inhibition of histamine release @ 10” value (@ 10, antigen challenge) was 39. Under setting [1], the inhibition at 33 µM is -17%. Regarding `O=C(O)c1ccccc1-c1ccccc1C(=O)Nc1ccc(CCCCCc2ccccc2)cc1` [Example 21, [1,1'-Biphenyl]-2-carboxylic acid, 2'-[[[4-(5-phenylpentyl)phenyl]amino]carbonyl]-], the inhibition at 33 µM is, setting by setting: under setting [1], 93%; under setting [2], 91%.
